From US20240216392A1, “METHODS OF TREAMENT” (Arena Pharmaceuticals, Inc., priority 2022, published 2024)
Read-outs that look alike come from different tables or passages of the source.

Test: Phase 1 multiple-dose study, plasma PK
Assay type: in vivo, human
Conditions: for half-life / Tmax / Cmax / AUC / AUC(0-inf): both sexes, human, plasma, oral; for AUC: read-out: Plasma AUCtau, geometric mean (geometric CV %); for AUC(0-inf): read-out: plasma geometric mean AUC0-inf
Description: Subjects were enrolled to 1 of 2 dosage regimens. Subject enrollment was stratified by sex to ensure approximate sex balance in each cohort.
(§1) Morning doses were administered following a standard light breakfast (e.g., milk and cereal, toast, and fruit) on all days. TID dosing (three times a day) was approximately 8 hours apart. Subjects fasted from midnight onwards, until the morning breakfast each day. There was no fluid restriction during the study, but subjects should not have consumed excessive amounts of fluid on any day.
The Phase 1, open-label, multiple-dose study of Example 1 was conducted for Cohorts 1-3, 4A, and 4B.
as §1, with “hours apart, and BID dosing (two times a day) was 12 hours” for “hours”, “were” for “should”, “to consume” for “have consumed”

C[C@H]1CN2CCNCc3ccc(C(=O)NCC(F)F)c1c32 [Compound 1, (R)—N-(2,2-difluoroethyl)-7-methyl-1,2,3,4,6,7-hexahydro-[1,4]diazepino[6,7,1-hi]indole-8-carboxamide]
average plasma concentrations over the dosing interval, comparability (Cohort 2 (12 mg TID) vs Cohort 4B (18 mg BID)): ~28%
Plasma Cavg, geometric mean (geometric CV %) (Day 8, Cohort 1 (6 mg TID)): 9.947 (2.6843) ng/mL
Plasma Ctrough, geometric mean (geometric CV %) (Day 8, Cohort 1 (6 mg TID)): 5.150 (1.6616) ng/mL
Plasma Cavg, geometric mean (geometric CV %) (Day 8, Cohort 2 (12 mg TID)): 26.19 (14.697) ng/mL
Plasma Ctrough, geometric mean (geometric CV %) (Day 8, Cohort 2 (12 mg TID)): 14.96 (9.9859) ng/mL
Plasma Cavg, geometric mean (geometric CV %) (Day 8, Cohort 3 (12 mg BID)): 14.42 (6.4875) ng/mL
Plasma Ctrough, geometric mean (geometric CV %) (Day 8, Cohort 3 (12 mg BID)): 4.892 (2.8780) ng/mL
Plasma Cavg, geometric mean (geometric CV %) (Day 8, Cohort 4A (15 mg BID)): 16.64 (4.4047) ng/mL
Plasma Ctrough, geometric mean (geometric CV %) (Day 8, Cohort 4A (15 mg BID)): 5.557 (2.3832) ng/mL
Plasma Cavg, geometric mean (geometric CV %) (Day 8, Cohort 4B (18 mg BID)): 20.62 (8.3690) ng/mL
Plasma Ctrough, geometric mean (geometric CV %) (Day 8, Cohort 4B (18 mg BID)): 7.427 (3.4830) ng/mL
Plasma Cavg, geometric mean (geometric CV %) (Day 9, Cohort 1 (6 mg TID)): 11.03 (3.3822) ng/mL
Plasma Ctrough, geometric mean (geometric CV %) (Day 9, Cohort 1 (6 mg TID)): 5.181 (1.9717) ng/mL
Plasma Cavg, geometric mean (geometric CV %) (Day 9, Cohort 2 (12 mg TID)): 27.22 (17.047) ng/mL
Plasma Ctrough, geometric mean (geometric CV %) (Day 9, Cohort 2 (12 mg TID)): 14.74 (13.800) ng/mL
Plasma Cavg, geometric mean (geometric CV %) (Day 9, Cohort 3 (12 mg BID)): 14.85 (6.1228) ng/mL
Plasma Ctrough, geometric mean (geometric CV %) (Day 9, Cohort 3 (12 mg BID)): 4.864 (2.7031) ng/mL
Plasma Cavg, geometric mean (geometric CV %) (Day 9, Cohort 4A (15 mg BID)): 17.84 (4.6403) ng/mL
Plasma Ctrough, geometric mean (geometric CV %) (Day 9, Cohort 4A (15 mg BID)): 6.497 (2.3570) ng/mL
Plasma Cavg, geometric mean (geometric CV %) (Day 9, Cohort 4B (18 mg BID)): 22.23 (10.604) ng/mL
Plasma Ctrough, geometric mean (geometric CV %) (Day 9, Cohort 4B (18 mg BID)): 7.066 (4.3229) ng/mL
Plasma Cavg, geometric mean (geometric CV %) (Day 10, Cohort 1 (6 mg TID)): 10.71 (2.8291) ng/mL
Plasma Ctrough, geometric mean (geometric CV %) (Day 10, Cohort 1 (6 mg TID)): 5.730 (1.7982) ng/mL
Plasma Cavg, geometric mean (geometric CV %) (Day 10, Cohort 2 (12 mg TID)): 27.73 (18.586) ng/mL
Plasma Ctrough, geometric mean (geometric CV %) (Day 10, Cohort 2 (12 mg TID)): 14.30 (11.743) ng/mL
Plasma Cavg, geometric mean (geometric CV %) (Day 10, Cohort 3 (12 mg BID)): 14.14 (6.2142) ng/mL
Plasma Ctrough, geometric mean (geometric CV %) (Day 10, Cohort 3 (12 mg BID)): 3.951 (2.4984) ng/mL
Plasma Cavg, geometric mean (geometric CV %) (Day 10, Cohort 4A (15 mg BID)): 16.70 (5.0410) ng/mL
Plasma Ctrough, geometric mean (geometric CV %) (Day 10, Cohort 4A (15 mg BID)): 4.372 ng/mL
Plasma Cavg, geometric mean (geometric CV %) (Day 10, Cohort 4B (18 mg BID)): 19.64 (6.8876) ng/mL
Plasma Ctrough, geometric mean (geometric CV %) (Day 10, Cohort 4B (18 mg BID)): 5.185 (2.4429) ng/mL
half-life (3 mg, Day 1, single 3 mg dose, Cohort 1, read-out: apparent terminal half-life (converted)): 3.1 h
Tmax (3 mg, Day 1, single 3 mg dose, Cohort 1, read-out: plasma Tmax, median): 1 h
Cmax (3 mg, Day 1, single 3 mg dose, Cohort 1, read-out: plasma geometric mean Cmax): 4.7 ng/mL
half-life (6 mg, Day 1, single 6 mg dose, Cohorts 2, 3, 4A, 4B, read-out: apparent terminal half-life (converted)): 3.1 to 3.3 h
Tmax (6 mg, Day 1, single 6 mg dose, Cohorts 2, 3, 4A, 4B, read-out: plasma Tmax, median): 0.98 to 1.14 h
Cmax (6 mg, Day 1, single 6 mg dose, Cohorts 2, 3, 4A, 4B, read-out: plasma geometric mean Cmax): 7.8 to 12.4 ng/mL
AUC (6 mg, Day 8, Cohort 1 (6 mg TID)): 77.1 ng·h/mL
Cmax (6 mg, Day 8, Cohort 1 (6 mg TID), read-out: Plasma Cmax, geometric mean (geometric CV %)): 16.6 ng/mL
half-life (6 mg, Day 8, Cohort 1 (6 mg TID), read-out: Plasma T1/2, mean (SD) (converted)): 4.49 h
Tmax (6 mg, Day 8, Cohort 1 (6 mg TID), read-out: Plasma Tmax, median (minimum, maximum)): 1.54 h
AUC (6 mg, Day 9, Cohort 1 (6 mg TID)): 84.9 ng·h/mL
Cmax (6 mg, Day 9, Cohort 1 (6 mg TID), read-out: Plasma Cmax, geometric mean (geometric CV %)): 18.4 ng/mL
half-life (6 mg, Day 9, Cohort 1 (6 mg TID), read-out: Plasma T1/2, mean (SD) (converted)): 3.85 h
Tmax (6 mg, Day 9, Cohort 1 (6 mg TID), read-out: Plasma Tmax, median (minimum, maximum)): 0.94 h
AUC (6 mg, Day 10, Cohort 1 (6 mg TID)): 82.6 ng·h/mL
Cmax (6 mg, Day 10, Cohort 1 (6 mg TID), read-out: Plasma Cmax, geometric mean (geometric CV %)): 16.5 ng/mL
half-life (6 mg, Day 10, Cohort 1 (6 mg TID), read-out: Plasma T1/2, mean (SD) (converted)): 4.63 h
Tmax (6 mg, Day 10, Cohort 1 (6 mg TID), read-out: Plasma Tmax, median (minimum, maximum)): 1.03 h
AUC (12 mg, Day 8, Cohort 2 (12 mg TID)): 190 ng·h/mL
Cmax (12 mg, Day 8, Cohort 2 (12 mg TID), read-out: Plasma Cmax, geometric mean (geometric CV %)): 36.7 ng/mL
half-life (12 mg, Day 8, Cohort 2 (12 mg TID), read-out: Plasma T1/2, mean (SD) (converted)): 4.74 h
Tmax (12 mg, Day 8, Cohort 2 (12 mg TID), read-out: Plasma Tmax, median (minimum, maximum)): 1.01 h
AUC (12 mg, Day 8, Cohort 3 (12 mg BID)): 156 ng·h/mL
Cmax (12 mg, Day 8, Cohort 3 (12 mg BID), read-out: Plasma Cmax, geometric mean (geometric CV %)): 30.3 ng/mL
half-life (12 mg, Day 8, Cohort 3 (12 mg BID), read-out: Plasma T1/2, mean (SD) (converted)): 4.32 h
Tmax (12 mg, Day 8, Cohort 3 (12 mg BID), read-out: Plasma Tmax, median (minimum, maximum)): 1.01 h
AUC (12 mg, Day 9, Cohort 2 (12 mg TID)): 194 ng·h/mL
Cmax (12 mg, Day 9, Cohort 2 (12 mg TID), read-out: Plasma Cmax, geometric mean (geometric CV %)): 44.5 ng/mL
half-life (12 mg, Day 9, Cohort 2 (12 mg TID), read-out: Plasma T1/2, mean (SD) (converted)): 4.79 h
Tmax (12 mg, Day 9, Cohort 2 (12 mg TID), read-out: Plasma Tmax, median (minimum, maximum)): 0.92 h
AUC (12 mg, Day 9, Cohort 3 (12 mg BID)): 163 ng·h/mL
Cmax (12 mg, Day 9, Cohort 3 (12 mg BID), read-out: Plasma Cmax, geometric mean (geometric CV %)): 37.2 ng/mL
half-life (12 mg, Day 9, Cohort 3 (12 mg BID), read-out: Plasma T1/2, mean (SD) (converted)): 4.58 h
Tmax (12 mg, Day 9, Cohort 3 (12 mg BID), read-out: Plasma Tmax, median (minimum, maximum)): 0.93 h
AUC (12 mg, Day 10, Cohort 2 (12 mg TID)): 196 ng·h/mL
Cmax (12 mg, Day 10, Cohort 2 (12 mg TID), read-out: Plasma Cmax, geometric mean (geometric CV %)): 39.8 ng/mL
half-life (12 mg, Day 10, Cohort 2 (12 mg TID), read-out: Plasma T1/2, mean (SD) (converted)): 4.08 h
Tmax (12 mg, Day 10, Cohort 2 (12 mg TID), read-out: Plasma Tmax, median (minimum, maximum)): 1.02 h
AUC (12 mg, Day 10, Cohort 3 (12 mg BID)): 154 ng·h/mL
Cmax (12 mg, Day 10, Cohort 3 (12 mg BID), read-out: Plasma Cmax, geometric mean (geometric CV %)): 31.3 ng/mL
half-life (12 mg, Day 10, Cohort 3 (12 mg BID), read-out: Plasma T1/2, mean (SD) (converted)): 3.54 h
Tmax (12 mg, Day 10, Cohort 3 (12 mg BID), read-out: Plasma Tmax, median (minimum, maximum)): 1 h
AUC (15 mg, Day 8, Cohort 4A (15 mg BID)): 194 ng·h/mL
Cmax (15 mg, Day 8, Cohort 4A (15 mg BID), read-out: Plasma Cmax, geometric mean (geometric CV %)): 44.8 ng/mL
half-life (15 mg, Day 8, Cohort 4A (15 mg BID), read-out: Plasma T1/2, mean (SD) (converted)): 5.36 h
Tmax (15 mg, Day 8, Cohort 4A (15 mg BID), read-out: Plasma Tmax, median (minimum, maximum)): 0.55 h
AUC (15 mg, Day 9, Cohort 4A (15 mg BID)): 208 ng·h/mL
Cmax (15 mg, Day 9, Cohort 4A (15 mg BID), read-out: Plasma Cmax, geometric mean (geometric CV %)): 50.2 ng/mL
half-life (15 mg, Day 9, Cohort 4A (15 mg BID), read-out: Plasma T1/2, mean (SD) (converted)): 5.51 h
Tmax (15 mg, Day 9, Cohort 4A (15 mg BID), read-out: Plasma Tmax, median (minimum, maximum)): 0.57 h
AUC (15 mg, Day 10, Cohort 4A (15 mg BID)): 193 ng·h/mL
Cmax (15 mg, Day 10, Cohort 4A (15 mg BID), read-out: Plasma Cmax, geometric mean (geometric CV %)): 40.9 ng/mL
half-life (15 mg, Day 10, Cohort 4A (15 mg BID), read-out: Plasma T1/2, mean (SD) (converted)): 3.72 h
Tmax (15 mg, Day 10, Cohort 4A (15 mg BID), read-out: Plasma Tmax, median (minimum, maximum)): 1.06 h
AUC (18 mg, Day 8, Cohort 4B (18 mg BID)): 230 ng·h/mL
Cmax (18 mg, Day 8, Cohort 4B (18 mg BID), read-out: Plasma Cmax, geometric mean (geometric CV %)): 43.2 ng/mL
half-life (18 mg, Day 8, Cohort 4B (18 mg BID), read-out: Plasma T1/2, mean (SD) (converted)): 5.51 h
Tmax (18 mg, Day 8, Cohort 4B (18 mg BID), read-out: Plasma Tmax, median (minimum, maximum)): 0.99 h
AUC (18 mg, Day 9, Cohort 4B (18 mg BID)): 242 ng·h/mL
Cmax (18 mg, Day 9, Cohort 4B (18 mg BID), read-out: Plasma Cmax, geometric mean (geometric CV %)): 47.7 ng/mL
half-life (18 mg, Day 9, Cohort 4B (18 mg BID), read-out: Plasma T1/2, mean (SD) (converted)): 4.3 h
Tmax (18 mg, Day 9, Cohort 4B (18 mg BID), read-out: Plasma Tmax, median (minimum, maximum)): 0.5 h
AUC (18 mg, Day 10, Cohort 4B (18 mg BID)): 224 ng·h/mL
Cmax (18 mg, Day 10, Cohort 4B (18 mg BID), read-out: Plasma Cmax, geometric mean (geometric CV %)): 53 ng/mL
half-life (18 mg, Day 10, Cohort 4B (18 mg BID), read-out: Plasma T1/2, mean (SD) (converted)): 3.51 h
Tmax (18 mg, Day 10, Cohort 4B (18 mg BID), read-out: Plasma Tmax, median (minimum, maximum)): 1 h
half-life (steady state, read-out: half-life at steady state (converted)): ~5 h
AUC(0-inf) (Day 1, single 3 mg dose, Cohort 1): 21.3 ng·h/mL
AUC(0-inf) (Day 1, single 6 mg dose, Cohorts 2, 3, 4A, 4B): 36.5 to 51.9 ng·h/mL
